The results in this text go back to patent US20260115201A1, “POTENTIAL THERAPEUTICS FOR FIBROSIS BY BLOCKING THE INCREASE OF A KEY ENZYME” (THE TEXAS A&M UNIVERSITY SYSTEM, priority 2022, published 2026).

The subject of the assay is bleomycin treated mice. The assay is described as follows: Bleomycin-induced pulmonary fibrosis in mice (survival, weight, BAL cells, lung collagen). It counts as in vivo, C57BL/6 mice. The method, then:
The successful aspiration of bleomycin into the lungs was confirmed by listening for a crackling noise heard after the aspiration. 100 μl DMSO or 20 mg/kg RK33 in 100 μl DMSO was given to mice by intraperitoneal (IP) injection at day 10, 12, 14, 16, 18 and 20 after bleomycin treatment. Mice were weighed daily, and euthanized using CO2 following NIH guidelines at day 21 after bleomycin aspiration. The experiment was performed in accordance with the recommendations in the Guide for the Care and Use of Laboratory Animals of the National Institutes of Health. The Texas A&M University Animal Use and Care Committee approved the protocol.
The BALs were clarified by centrifugation at 500×g for 10 minutes, and the supernatants were transferred to Eppendorf tubes. The cells collected from BAL were counted, and BAL cytospins were prepared as described in Fibroblasts secrete Slit2 to inhibit fibrocyte differentiation and fibrosis, Proc Natl Acad Sci USA, 2014, 111: 18291-18296. BAL cytospins were fixed and treated with Wright-Giemsa stain (#08711, Polysciences, Inc., Warrington, PA) following Variation of differential cell counts of bronchoalveolar lavage fluid, Archives of pathology & laboratory medicine, 1986, 110(4): 341-343.
After collection of BAL fluid, mouse lungs were inflated with prewarmed Optimal Cutting Temperature (OCT) embedding medium (VWR, Radnor, PA) and then embedded in OCT, frozen on dry ice, and then stored at −80° C. 8-micron cryosections of mouse lungs were mounted on Superfrost Plus® microscope slides (VWR). The sections on the slides were allowed to air-dry for 24-48 hours. Total collagen on the mouse lung sections were stained with picrosirius red as described in Reduction of bleomycin-induced pulmonary fibrosis by serum amyloid P, J Immunol, 2007, 179: 4035-4044. Hydroxyproline in the mouse lung tissue was measured with a hydroxyproline assay as described in Attenuated pulmonary fibrosis in sialidase-3 knockout (Neu3−/−) mice, Am J Physiol Lung Cell Mol Physiol, 2020, 318(1): L165-L179.

Setting [1] is: 20 mg/kg IP, day 21 (FIGS. 6A-6B).

As for “(diimidazo[4,5-d:4′,5′-f]-[1,3]diazepine) [RK33]”, the survival rate result (20 mg/kg IP at day 10, 12, 14, 16, 18 and 20, to day 21 (FIG. 3)) is “dramatically increased”. Moreover, the body weight recovery entry (20 mg/kg IP at day 10-20 every other day (FIG. 4)) was “improved”. For the same substance, the “total cell number in BAL” value (20 mg/kg IP, day 21 (FIG. 5A)) is given as “significantly blocked the bleomycin effect”. Under “20 mg/kg IP, day 21 (FIG. 7)”, the “total collagen in lungs, hydroxyproline assay” value is “reduced the abnormally high levels of collagen”. Under setting [1], the “difference between lung of bleomycin+RK33 treated mouse and control mouse, picrosirius red collagen” value is “no significant difference”; the “total collagen in lungs, picrosirius red staining” value is on record as “reduced the abnormally high levels of collagen”. Besides, where the note is “20 mg/kg IP, day 21, Wright-Giemsa stain (FIG. 5B)”, the “percentage of lymphocytes in BAL” value is recorded as “significantly blocked the bleomycin effect”.
